In the assay the test system is nude mice, LX-1 lung xenograft intrarenal, tumor weight T/C. The assay is described as follows: NCI In Vivo Anticancer Drug Screen. Data for tumor model Human Lung LX-1 Xenograft (intrarenal inoculation) in NU/NU Swiss (nude) mice. Particulars: endpoint: mean tumor weight change, higher = larger tumour. A digest of the protocol: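 Compound-treated mice carrying transplanted tumors were compared with vehicle-treated controls. Tumor size was the measured end point, and the value is the treated-group measurement divided by the control-group measurement (T/C).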
(In xenograft studies the graft and the host belong to different species.)

Setting [1] is: dose: 300.0 mg/kg/injection, schedule: Q04DX003 (sc), vehicle: saline with Tween-80.
Where [2] appears, read: dose: 600.0 mg/kg/injection, schedule: Q04DX003 (sc), vehicle: saline with Tween-80.
Setting [3] is: dose: 1200.0 mg/kg/injection, schedule: Q04DX003 (sc), vehicle: saline with Tween-80.
Setting [4] is: dose: 2400.0 mg/kg/injection, schedule: Q04DX003 (sc), vehicle: saline with Tween-80.
Where [5] appears, read: dose: 75.0 mg/kg/injection, schedule: Q04DX003 (sc), vehicle: saline with Tween-80.
Where [6] appears, read: dose: 150.0 mg/kg/injection, schedule: Q04DX003 (sc), vehicle: saline with Tween-80.
Setting [7] is: dose: 200.0 mg/kg/injection, schedule: Q04DX003 (sc), vehicle: saline with Tween-80.
[8] abbreviates: dose: 25.0 mg/kg/injection, schedule: Q04DX003 (sc), vehicle: saline with Tween-80.
Setting [9] is: dose: 50.0 mg/kg/injection, schedule: Q04DX003 (sc), vehicle: saline with Tween-80.
Where [10] appears, read: dose: 100.0 mg/kg/injection, schedule: Q04DX003 (sc), vehicle: saline with Tween-80.

Where “and” joins values, the source holds several entries; their conditions need not be identical. Equal entries are not always repeated. Results filed as inconclusive are left out.

With `COc1cc2c(c(OC)c1OC)-c1c(cc3c(c1OC)OCO3)CC(C)C(C)(O)C2OC(=O)c1ccccc1` (stereo not drawn), the T/C by setting is: (dose: 300.0 mg/kg/injection, schedule: Q04DX003 (sc), vehicle: saline + alcohol) 65 % of control; (dose: 600.0 mg/kg/injection, schedule: Q04DX003 (sc), vehicle: saline + alcohol) 107 % of control; (dose: 1200.0 mg/kg/injection, schedule: Q04DX003 (sc), vehicle: saline + alcohol) 108 % of control; (dose: 2400.0 mg/kg/injection, schedule: Q04DX003 (sc), vehicle: saline + alcohol) 77 % of control.
On to `Nc1nc2c(ncn2C2OC(CO)C(O)C2O)c(=O)[nH]1` (stereo not drawn), for which the T/C is, setting by setting: under setting [1], 50 % of control; under setting [2], 54 % of control; under setting [3], 42 % of control; under setting [4], 46 % of control.
Consider `O=C1C=C(C2OC(CO)C(O)C2O)C(=O)N1` (stereo not drawn), for which the T/C is, setting by setting: (dose: 6.25 mg/kg/injection, schedule: Q01DX010 (sc), vehicle: saline) 37 % of control; (dose: 12.5 mg/kg/injection, schedule: Q01DX010 (sc), vehicle: saline) 46 % of control; (dose: 25.0 mg/kg/injection, schedule: Q01DX010 (sc), vehicle: saline) 66 % of control.
Turning to `COc1cc([C@@H]2c3cc4c(cc3[C@@H](OC3OC5CO[C@@H](c6cccs6)OC5C(O)C3O)[C@H]3COC(=O)[C@H]23)OCO4)cc(OC)c1O` (stereo partly drawn), the T/C reads like this: (dose: 1.0 mg/kg/injection, schedule: Q01DX010 (sc), vehicle: saline) 54 % of control; (dose: 2.0 mg/kg/injection, schedule: Q01DX010 (sc), vehicle: saline) 78 % of control; (dose: 4.0 mg/kg/injection, schedule: Q01DX010 (sc), vehicle: saline) 62 % of control and 78 % of control; (dose: 8.0 mg/kg/injection, schedule: Q01DX010 (sc), vehicle: saline) 62 % of control and 78 % of control; (dose: 16.0 mg/kg/injection, schedule: Q01DX010 (sc), vehicle: saline) 89 % of control; (dose: 32.0 mg/kg/injection, schedule: Q01DX010 (sc), vehicle: saline) 39 % of control. Moreover, the T/C by setting is: (dose: 33.0 mg/kg/injection, schedule: Q01DX010 (sc), vehicle: saline) 109 % of control; (dose: 132.0 mg/kg/injection, schedule: Q01DX010 (sc), vehicle: saline) 56 % of control; (dose: 264.0 mg/kg/injection, schedule: Q01DX010 (sc), vehicle: saline) 88 % of control.
With `COc1ccc2[nH]c3ccc4cc[n+](CCN5CCC(C6CCN(CC[n+]7ccc8ccc9[nH]c%10ccc(OC)cc%10c9c8c7)CC6)CC5)cc4c3c2c1`, the T/C runs as follows: (dose: 150.0 mg/kg/injection, schedule: Q04DX003 (sc), vehicle: Klucel (hydroxypropylcellulose) (HPC)) 88 % of control; (dose: 300.0 mg/kg/injection, schedule: Q04DX003 (sc), vehicle: Klucel (hydroxypropylcellulose) (HPC)) 96 % of control; (dose: 600.0 mg/kg/injection, schedule: Q04DX003 (sc), vehicle: Klucel (hydroxypropylcellulose) (HPC)) 83 % of control; (dose: 1200.0 mg/kg/injection, schedule: Q04DX003 (sc), vehicle: Klucel (hydroxypropylcellulose) (HPC)) 93 % of control.
In the case of `COC1=C(OC)C(=O)C(Sc2ccc3ccccc3c2)=CC1=O`, the T/C under setting [5] was 85 % of control; the T/C under setting [6] was 93 % of control; the T/C under setting [7] is 115 % of control; the T/C under setting [1] is 80 % of control; the T/C (dose: 400.0 mg/kg/injection, schedule: Q04DX003 (sc), vehicle: saline with Tween-80) was 104 % of control; the T/C (dose: 800.0 mg/kg/injection, schedule: Q04DX003 (sc), vehicle: saline with Tween-80) was 92 % of control. Further, the T/C (dose: 1600.0 mg/kg/injection, schedule: Q04DX003 (sc), vehicle: saline with Tween-80) was 79 % of control.
For `CS(=O)(=O)OCCCCOS(C)(=O)=O`, the T/C (dose: 25.0 mg/kg/injection, schedule: Q01DX010 (sc), vehicle: saline with Tween-80) was 41 % of control.
Regarding `CCOC(=O)CNC(=O)CCCCSc1ncnc2nc[nH]c12`, the T/C by setting is: under setting [1], 80 % of control; under setting [2], 86 % of control; under setting [3], 85 % of control; under setting [4], 114 % of control.
Take `Nc1nc(F)nc2c1ncn2C1OC(COP(=O)(O)O)C(O)C1O` (stereo not drawn): the T/C (dose: 50.0 mg/kg/injection, schedule: Q01DX010 (sc), vehicle: saline) is 55 % of control; the T/C (dose: 50.0 mg/kg/injection, schedule: Q01DX010 (sc), vehicle: suspension in saline) was 53 % of control and 70 % of control; the T/C (dose: 100.0 mg/kg/injection, schedule: Q01DX010 (sc), vehicle: saline) was 20 % of control and 30 % of control; the T/C (dose: 100.0 mg/kg/injection, schedule: Q01DX010 (sc), vehicle: suspension in saline) was 56 % of control and 59 % of control; the T/C (dose: 200.0 mg/kg/injection, schedule: Q01DX010 (sc), vehicle: suspension in saline) was 6 % of control and 18 % of control; the T/C (dose: 400.0 mg/kg/injection, schedule: Q01DX010 (sc), vehicle: saline) is -72 % of control. Moreover, the T/C (dose: 400.0 mg/kg/injection, schedule: Q01DX010 (sc), vehicle: suspension in saline) was -62 % of control.
Regarding `COc1cc(OC)c(NC(=O)ON2C(=O)c3ccccc3C2=O)cc1Cl`, the T/C reads like this: under setting [8], 93 % of control; under setting [9], 79 % of control; under setting [10], 68 % of control; under setting [7], 92 % of control.
As to `Cc1cc(NCCN(C(C)C)C(C)C)nc(/N=C(\N)Nc2ccc(Cl)c(C(F)(F)F)c2)n1`, the T/C runs as follows: (dose: 40.0 mg/kg/injection, schedule: Q04DX003 (sc), vehicle: Klucel (hydroxypropylcellulose) (HPC)) 45 % of control; (dose: 80.0 mg/kg/injection, schedule: Q04DX003 (sc), vehicle: Klucel (hydroxypropylcellulose) (HPC)) 60 % of control; (dose: 160.0 mg/kg/injection, schedule: Q04DX003 (sc), vehicle: Klucel (hydroxypropylcellulose) (HPC)) 46 % of control; (dose: 320.0 mg/kg/injection, schedule: Q04DX003 (sc), vehicle: Klucel (hydroxypropylcellulose) (HPC)) 62 % of control.
With `C[C@H](CCC[C@H](C)OS(=O)(=O)c1ccccc1)OS(=O)(=O)c1ccccc1`, the T/C is 87 % of control under setting [6] and 45 % of control under setting [1].
`COc1cccc2c1C(=O)c1c(O)c3c(c(O)c1C2=O)CC(O)(/C(C)=N/NC(=O)CCC(=O)N/N=C(\C)C1(O)Cc2c(O)c4c(c(O)c2C(OC2CC(N)C(O)C(C)O2)C1)C(=O)c1c(OC)cccc1C4=O)CC3OC1CC(N)C(O)C(C)O1` (stereo not drawn): the T/C is 21 % of control (2×) and 27 % of control (dose: 6.25 mg/kg/injection, schedule: Q01DX010 (sc), vehicle: water); 31 % of control and 46 % of control and 51 % of control (dose: 12.5 mg/kg/injection, schedule: Q01DX010 (sc), vehicle: water).
As to `CC1=CC(C)(C)Nc2ccc(CSc3ccccc3)cc21`, the T/C by setting is: (dose: 75.0 mg/kg/injection, schedule: Q01DX010 (sc), vehicle: saline + Tween-80 + alcohol) 105 % of control; (dose: 150.0 mg/kg/injection, schedule: Q01DX010 (sc), vehicle: saline + Tween-80 + alcohol) 105 % of control; (dose: 300.0 mg/kg/injection, schedule: Q01DX010 (sc), vehicle: saline + Tween-80 + alcohol) 85 % of control.
In the case of `CN=C(N)N/N=C(\C)c1ccc2oc3ccc(/C(C)=N/NC(N)=NC)cc3c2c1`, the T/C is 89 % of control under setting [5] and 65 % of control under setting [6].
As to `CN(Cc1cnc2nc(N)nc(N)c2n1)c1c(Cl)cc(C(=O)NC(CCC(=O)O)C(=O)O)cc1Cl` (stereo not drawn), the T/C is 73 % of control (dose: 12.5 mg/kg/injection, schedule: Q01DX010 (sc), vehicle: Klucel (hydroxypropylcellulose) (HPC)); 48 % of control (dose: 25.0 mg/kg/injection, schedule: Q01DX010 (sc), vehicle: Klucel (hydroxypropylcellulose) (HPC)); 45 % of control (dose: 50.0 mg/kg/injection, schedule: Q01DX010 (sc), vehicle: Klucel (hydroxypropylcellulose) (HPC)).
`COC(=O)Nc1nc2ccc(C3(c4ccc(F)cc4)OCCO3)cc2[nH]1`: the T/C is, setting by setting: under setting [8], 76 % of control; under setting [9], 71 % of control; under setting [10], 89 % of control; under setting [7], 79 % of control; under setting [3], 17 % of control and 37 % of control.

The record behind these values is PubChem BioAssay AID264 (DTP/NCI, 2004).
